Test [1] has as its target Adenosylmethionine-8-amino-7-oxononanoate aminotransferase (Mycobacterium tuberculosis, UniProt P9WQ81). In words: Mycobacterium tuberculosis BioA enzyme inhibitor Measured in Biochemical System Using Plate Reader - 2163-02_Inhibitor_Dose_CherryPick_Activity. It is filed as functional, Mycobacterium tuberculosis UT205.
The subject of test [2] is Vero. Nature of the test: Vero cell cytotoxicity, cytotoxicity control for flavivirus capping enzyme inhibitors (AID 588742). It is filed as functional. The conditions noted are these: Chlorocebus sabaeus.
Test [3] deals with Protein Wnt-3a (Mus musculus, UniProt P27467). In words: Wnt3a-driven reporter signaling inhibition, dose response, selectivity assay for Gli-SUFU antagonist project, Wnt-LIGHT cells, luminescence (AID 651570).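 Further: Wnt-LIGHT reporter cells stimulated with conditioned medium from Wnt3a-producing cells.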 The conditions noted are these: read-out: IC50_Mean. It is filed as functional.
Test [4] is described as follows: inhibitors of intracellular T. cruzi replication, confirmation, NIH3T3 host cells, beta-gal luminescence (AID 2044).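 Further: intracellular parasites grown in NIH/3T3 mouse fibroblasts as host cells; luminescent beta-galactosidase reporter signal from transgenic T. cruzi replicating inside host cells; inhibitors lower the luminescence signal.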 The format is functional, cell-based.
Test [5] can be described thus: cytotoxicity toward NIH3T3 fibroblasts, dose response, counter-screen, cell-based, ATP luminescence, mouse fibroblasts (AID 2010).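 Further: cells exposed to compound for about 90 hours before reading.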 The format is functional.
Test [6] is described as follows: StAR promoter reporter inhibition counter-screen, dose response, counter-screen for LRH-1 inverse agonist project, cell-based, luminescence, luciferase reporter (AID 651969). It is filed as functional. (In general: The purpose of a counterscreen is to sort out artefacts and off-target activity.)
Test [7] has as its target Nuclear receptor subfamily 5 group A member 2 (Homo sapiens, UniProt O00482). The format is functional, cell-based.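 Further: HEK293T cells transfected with LRH-1 and a StAR promoter luciferase reporter; potency for inhibitors that lower LRH-1 driven reporter light.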
The target in test [8] is Steroidogenic factor 1 (Homo sapiens, UniProt Q13285). In words: Counterscreen for inverse agonists of the liver receptor homolog-1 (LRH-1; NR5A2): Luminescence-based cell-based high throughput dose response assay to identify inverse agonists of the Steroidogenic Factor 1 Nuclear Receptor (SF1; NR5A1). The format is functional.
The target in test [9] is T1, Small ubiquitin-related modifier 1 (Homo sapiens, UniProt P63165). In words: inhibitors of SUMO1 partner interactions, dose response, biochemical, FRET (AID 624383). It is filed as functional. The conditions noted are these: read-out: IC50_Mean.
The target of test [10] is T2, Small ubiquitin-related modifier 2 (Homo sapiens, UniProt P61956). Nature of the test: inhibitors of SUMO2 protein-protein interaction, dose response, selectivity assay for SUMO1 interaction inhibitor project, biochemical, FRET, human SUMO2, uHTS hits (AID 624384). It is filed as functional. To be noted: read-out: IC50_Mean.
Test [11] has as its target T1, Small ubiquitin-related modifier 1. In words: inhibitors of SUMO1 peptide binding, dose response, biochemical, fluorescence polarization, uHTS hits (AID 624382). It is filed as functional. To be noted: read-out: IC50_Mean. For orientation: Polarisation of emitted light reports the rotation of a fluorescent probe.
The target in test [12] is T2, Small ubiquitin-related modifier 2. In words: SUMO2–SIM peptide binding inhibitors, dose response, selectivity assay for SUMO1 interaction inhibitor project, biochemical, fluorescence polarization, uHTS hits (AID 624385). It is filed as functional. The conditions noted are these: read-out: IC50_Mean.

Activity calls are given as the source filed them.

Sequence of Adenosylmethionine-8-amino-7-oxononanoate aminotransferase (P9WQ81 whole entry): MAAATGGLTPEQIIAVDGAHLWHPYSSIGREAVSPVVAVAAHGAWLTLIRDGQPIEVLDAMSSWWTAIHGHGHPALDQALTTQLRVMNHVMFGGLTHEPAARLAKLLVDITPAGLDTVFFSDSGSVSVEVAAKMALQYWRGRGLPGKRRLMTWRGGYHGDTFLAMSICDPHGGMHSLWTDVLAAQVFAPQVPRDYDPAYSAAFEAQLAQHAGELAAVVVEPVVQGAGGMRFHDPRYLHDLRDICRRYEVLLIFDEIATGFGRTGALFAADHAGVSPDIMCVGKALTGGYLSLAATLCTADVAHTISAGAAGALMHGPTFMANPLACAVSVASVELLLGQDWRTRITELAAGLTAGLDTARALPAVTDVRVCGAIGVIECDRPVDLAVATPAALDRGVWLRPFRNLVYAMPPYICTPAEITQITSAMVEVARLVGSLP
T2 sequence (P61956 whole entry): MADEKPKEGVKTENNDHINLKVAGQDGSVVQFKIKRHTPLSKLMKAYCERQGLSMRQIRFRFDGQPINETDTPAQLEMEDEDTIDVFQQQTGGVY
T1 sequence (P63165 whole entry): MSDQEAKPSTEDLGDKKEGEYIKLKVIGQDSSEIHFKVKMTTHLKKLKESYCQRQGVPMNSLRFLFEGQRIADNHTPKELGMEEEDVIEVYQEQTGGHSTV
Sequence of Protein Wnt-3a (P27467 whole entry): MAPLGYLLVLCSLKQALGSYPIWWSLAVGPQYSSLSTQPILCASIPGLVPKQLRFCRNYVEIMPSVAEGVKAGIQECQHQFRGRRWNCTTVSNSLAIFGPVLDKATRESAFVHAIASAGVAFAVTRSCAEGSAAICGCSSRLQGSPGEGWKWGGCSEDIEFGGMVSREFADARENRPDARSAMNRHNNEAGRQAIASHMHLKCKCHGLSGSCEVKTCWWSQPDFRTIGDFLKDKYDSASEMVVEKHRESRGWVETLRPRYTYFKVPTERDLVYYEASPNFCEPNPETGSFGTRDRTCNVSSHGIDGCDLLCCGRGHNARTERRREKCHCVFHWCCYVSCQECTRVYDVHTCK
Sequence of Nuclear receptor subfamily 5 group A member 2 (O00482 whole entry): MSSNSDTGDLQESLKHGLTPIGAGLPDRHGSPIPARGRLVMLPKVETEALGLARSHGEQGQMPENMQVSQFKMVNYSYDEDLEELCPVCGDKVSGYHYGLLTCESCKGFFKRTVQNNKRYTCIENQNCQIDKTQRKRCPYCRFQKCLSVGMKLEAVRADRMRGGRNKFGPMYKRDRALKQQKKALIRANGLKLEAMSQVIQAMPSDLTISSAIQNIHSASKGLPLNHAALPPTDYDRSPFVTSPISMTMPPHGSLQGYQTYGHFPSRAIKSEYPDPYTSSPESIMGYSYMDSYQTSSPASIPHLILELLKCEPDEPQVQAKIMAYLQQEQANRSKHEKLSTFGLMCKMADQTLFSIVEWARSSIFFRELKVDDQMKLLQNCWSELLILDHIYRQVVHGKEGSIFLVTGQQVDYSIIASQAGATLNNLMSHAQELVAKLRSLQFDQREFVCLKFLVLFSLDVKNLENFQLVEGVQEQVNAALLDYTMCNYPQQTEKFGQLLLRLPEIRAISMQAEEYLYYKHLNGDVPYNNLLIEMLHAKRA
Sequence of Steroidogenic factor 1 (Q13285 whole entry): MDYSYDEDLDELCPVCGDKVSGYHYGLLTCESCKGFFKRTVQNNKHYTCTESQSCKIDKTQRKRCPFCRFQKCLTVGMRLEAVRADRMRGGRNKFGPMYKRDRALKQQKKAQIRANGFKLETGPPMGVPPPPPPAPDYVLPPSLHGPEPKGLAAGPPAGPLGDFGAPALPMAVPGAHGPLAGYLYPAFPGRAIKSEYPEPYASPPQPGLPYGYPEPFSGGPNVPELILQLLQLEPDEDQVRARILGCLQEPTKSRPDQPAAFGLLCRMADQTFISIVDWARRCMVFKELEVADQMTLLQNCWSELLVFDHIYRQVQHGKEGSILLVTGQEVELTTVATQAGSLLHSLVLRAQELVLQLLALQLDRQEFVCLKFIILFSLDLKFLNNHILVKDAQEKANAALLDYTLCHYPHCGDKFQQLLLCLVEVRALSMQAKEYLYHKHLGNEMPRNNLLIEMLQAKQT

As to `Cn1c(=O)c2c(nc(OCc3cccnc3)n2Cc2ccccc2)n(C)c1=O`, the AC50 in test [1] is 1 µM (active).

With `CCNC(=O)[C@@H]1[C@@H](CO)[C@@H]2Cn3c(ccc(-c4cccnc4)c3=O)[C@@H]2N1Cc1ccc2c(c1)OCO2`, the AC50 in [1] is 9.24 µM (active).

Regarding `COc1cc(CNc2ccc(O)cc2)cc(Br)c1OCc1ccccc1F`, the CC50 in [2] is > 40 µM (active).

Turning to `C=C(C)CSc1nc2sc3c(c2c(=O)n1C1CCCCC1)CCN(C)C3`, the IC50 in test [3] is 13.5 µM (active). Also, the EC50 in [4] was 0.403 µM (active); in test [5], > 60 µM (not active).

Take `COc1cc2c(cc1OC)CN(C(=O)CN1C(=O)NC3(CCC(C)CC3)C1=O)CC2` (stereo not drawn): the IC50 in test [6] was 35.9 µM (inactive); in test [7], 13.4 µM (inactive); in test [8], 11.3 µM (inactive).

On to `COc1ccc(C=NNc2ccc(S(=O)(=O)Nc3ccccc3C(=O)O)cc2[N+](=O)[O-])c(OC)c1`, for which the IC50 is 50.9 µM (inactive) in test [9], 6.34 µM (active) in [10], 5.26 µM (active) in [11] and 3.82 µM (active) in [12].

One may read the AC50 as the concentration giving half of the maximal activity seen. In general, CC50 refers to the concentration at which the toxic effect on the cells reaches its halfway point. In general, EC50 refers to the concentration at which the effect is half-maximal.
